Measured values taken from paper PMC6893898, “Receptor Interaction Profiles of 4-Alkoxy-Substituted 2,5-Dimethoxyphenethylamines and Related Amphetamines” (Frontiers in Pharmacology, 2019).
“Also recorded” adds a separate entry of the source. Read-outs that look alike come from different tables or passages of the source.

How the values were obtained:
5-HT1A receptor [1] = biological target: T1, 5-HT1A receptor (Homo sapiens, UniProt P08908); conditions: cited from earlier work
T1 construct: expressed in transfected cells; host or cells: HEK 293 (membrane preparation)
T1 sequence (P08908 1-422): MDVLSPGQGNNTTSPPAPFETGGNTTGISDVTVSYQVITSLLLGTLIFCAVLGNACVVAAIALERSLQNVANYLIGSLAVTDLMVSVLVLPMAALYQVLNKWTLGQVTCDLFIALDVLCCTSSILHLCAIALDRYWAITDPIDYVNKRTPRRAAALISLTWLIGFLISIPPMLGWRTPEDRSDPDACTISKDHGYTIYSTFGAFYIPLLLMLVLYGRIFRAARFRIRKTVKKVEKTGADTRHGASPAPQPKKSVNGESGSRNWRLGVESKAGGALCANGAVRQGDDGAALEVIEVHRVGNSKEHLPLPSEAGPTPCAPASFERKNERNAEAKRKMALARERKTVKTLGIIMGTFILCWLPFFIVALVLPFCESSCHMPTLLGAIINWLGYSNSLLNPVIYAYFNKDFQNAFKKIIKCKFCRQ

human 5-HT2B receptor [2] = biological target: T2, human 5-HT2B receptor (Homo sapiens, UniProt P41595); design: method as in Luethi et al., 2018; conditions: ref Luethi et al., 2018, cited from earlier work
T2 construct: expressed in transfected cells; host or cells: HEK 293
T2 sequence (P41595 whole entry): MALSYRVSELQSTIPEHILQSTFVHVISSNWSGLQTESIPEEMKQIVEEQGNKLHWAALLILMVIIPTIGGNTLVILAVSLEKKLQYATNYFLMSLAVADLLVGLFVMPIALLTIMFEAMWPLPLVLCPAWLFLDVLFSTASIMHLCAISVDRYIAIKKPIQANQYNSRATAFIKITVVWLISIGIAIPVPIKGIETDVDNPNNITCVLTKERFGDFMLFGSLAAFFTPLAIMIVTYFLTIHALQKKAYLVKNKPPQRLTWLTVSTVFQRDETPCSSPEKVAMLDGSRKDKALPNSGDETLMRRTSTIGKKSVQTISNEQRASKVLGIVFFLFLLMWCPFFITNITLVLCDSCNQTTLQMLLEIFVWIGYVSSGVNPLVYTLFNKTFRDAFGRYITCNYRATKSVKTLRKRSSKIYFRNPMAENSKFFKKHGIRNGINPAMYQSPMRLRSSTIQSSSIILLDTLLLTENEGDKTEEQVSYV

humans = conditions: ref Shulgin and Shulgin, 1991, cited from earlier work; for Psychoactivity in humans: at the doses tested
hDAT [3] = biological target: T3, hDAT (Homo sapiens, UniProt Q01959); design: expressed in transfected cells; host or cells: HEK 293 (membrane preparation); conditions: read-out: DAT uptake inhibition EC50; known low potency in this assay; no reference given; cited from earlier work
T3 sequence (Q01959 whole entry): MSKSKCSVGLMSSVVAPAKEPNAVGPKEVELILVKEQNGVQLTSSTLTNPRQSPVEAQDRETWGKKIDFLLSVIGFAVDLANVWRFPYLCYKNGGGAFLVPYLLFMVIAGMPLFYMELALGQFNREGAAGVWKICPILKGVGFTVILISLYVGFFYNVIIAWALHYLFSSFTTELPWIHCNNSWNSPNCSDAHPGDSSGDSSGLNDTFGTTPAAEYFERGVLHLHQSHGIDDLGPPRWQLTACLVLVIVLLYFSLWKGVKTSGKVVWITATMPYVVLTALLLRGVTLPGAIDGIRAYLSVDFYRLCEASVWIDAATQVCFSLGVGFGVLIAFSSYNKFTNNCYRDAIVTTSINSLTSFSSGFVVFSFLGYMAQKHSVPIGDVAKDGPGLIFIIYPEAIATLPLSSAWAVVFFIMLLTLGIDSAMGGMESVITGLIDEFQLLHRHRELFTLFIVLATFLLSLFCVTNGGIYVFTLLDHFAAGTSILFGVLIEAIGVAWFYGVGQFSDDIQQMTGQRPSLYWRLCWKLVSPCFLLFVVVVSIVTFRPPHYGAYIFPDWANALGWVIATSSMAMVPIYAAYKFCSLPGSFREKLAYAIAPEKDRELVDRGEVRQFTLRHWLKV

α2A adrenergic receptor [4] = biological target: T4, α2A adrenergic receptor (Homo sapiens, UniProt P08913); design: method as in Simmler et al., 2013; conditions: read-out: α2A Ki ± SD; [3H]rauwolscine; ref Simmler et al., 2013; cited from earlier work
T4 construct: expressed in transfected cells; host or cells: Chinese hamster lung cell line (membrane preparation)
T4 sequence (P08913 1-465): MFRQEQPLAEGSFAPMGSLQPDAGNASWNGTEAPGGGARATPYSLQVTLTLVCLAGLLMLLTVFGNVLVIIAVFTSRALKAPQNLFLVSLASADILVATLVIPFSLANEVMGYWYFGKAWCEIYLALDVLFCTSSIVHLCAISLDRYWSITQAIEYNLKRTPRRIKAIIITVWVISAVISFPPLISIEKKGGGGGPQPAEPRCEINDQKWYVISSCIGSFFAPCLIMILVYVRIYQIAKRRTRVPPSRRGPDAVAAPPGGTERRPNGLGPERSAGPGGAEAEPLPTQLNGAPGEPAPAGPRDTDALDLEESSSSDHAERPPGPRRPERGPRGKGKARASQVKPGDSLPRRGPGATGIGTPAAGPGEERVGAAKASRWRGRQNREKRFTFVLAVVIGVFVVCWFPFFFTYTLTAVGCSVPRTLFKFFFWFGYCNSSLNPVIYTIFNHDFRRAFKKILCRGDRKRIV

rat TAAR1 [5] = biological target: T5, rat TAAR1 (Rattus norvegicus, UniProt Q923Y9); design: method as in Simmler et al., 2013; conditions: read-out: rat TAAR1 Ki ± SD; [3H]RO5166017; ref Simmler et al., 2013; cited from earlier work
T5 construct: expressed in transfected cells; host or cells: HEK 293 (membrane preparation)
T5 sequence (Q923Y9 whole entry): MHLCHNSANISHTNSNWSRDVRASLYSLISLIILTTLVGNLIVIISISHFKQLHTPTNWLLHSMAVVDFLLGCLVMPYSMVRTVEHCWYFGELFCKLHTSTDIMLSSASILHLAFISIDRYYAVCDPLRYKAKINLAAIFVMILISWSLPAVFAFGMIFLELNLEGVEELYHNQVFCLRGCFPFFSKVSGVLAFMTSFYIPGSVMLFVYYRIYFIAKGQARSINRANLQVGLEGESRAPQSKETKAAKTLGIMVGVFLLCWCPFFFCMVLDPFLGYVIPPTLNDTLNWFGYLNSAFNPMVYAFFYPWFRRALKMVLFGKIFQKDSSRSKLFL

hNET [6] = biological target: T6, hNET (Homo sapiens, UniProt P23975); test: Monoamine uptake transporter inhibition, [3H]norepinephrine, HEK 293 cells; conditions: 10 µM
T6 sequence (P23975 whole entry): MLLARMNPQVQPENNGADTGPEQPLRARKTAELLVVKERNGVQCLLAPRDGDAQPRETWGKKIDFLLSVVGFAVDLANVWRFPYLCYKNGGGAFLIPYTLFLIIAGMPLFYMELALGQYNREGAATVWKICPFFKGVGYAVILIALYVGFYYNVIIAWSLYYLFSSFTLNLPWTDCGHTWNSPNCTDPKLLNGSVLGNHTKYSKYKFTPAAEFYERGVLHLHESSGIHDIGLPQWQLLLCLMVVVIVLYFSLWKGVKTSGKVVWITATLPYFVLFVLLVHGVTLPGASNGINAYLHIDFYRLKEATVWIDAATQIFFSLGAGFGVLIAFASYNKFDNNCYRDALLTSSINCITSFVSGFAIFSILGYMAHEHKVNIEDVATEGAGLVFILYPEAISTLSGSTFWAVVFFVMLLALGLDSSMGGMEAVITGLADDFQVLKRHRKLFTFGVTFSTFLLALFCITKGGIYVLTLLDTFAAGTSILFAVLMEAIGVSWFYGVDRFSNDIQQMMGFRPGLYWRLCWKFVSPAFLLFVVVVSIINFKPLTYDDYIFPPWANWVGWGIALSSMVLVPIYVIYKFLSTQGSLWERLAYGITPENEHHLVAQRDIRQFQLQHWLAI

hNET [7] = biological target: T6, hNET; design: expressed in transfected cells; host or cells: HEK 293 (membrane preparation); method as in Simmler et al., 2013; conditions: read-out: hNET Ki ± SD; N-methyl-[3H]nisoxetine; ref Simmler et al., 2013; cited from earlier work
mouse TAAR1 [8] = biological target: T7, mouse TAAR1 (Mus musculus, UniProt Q923Y8); design: method as in Simmler et al., 2013; conditions: read-out: mouse TAAR1 Ki ± SD; [3H]RO5166017; ref Simmler et al., 2013; cited from earlier work
T7 construct: expressed in transfected cells; host or cells: HEK 293 (membrane preparation)
T7 sequence (Q923Y8 whole entry): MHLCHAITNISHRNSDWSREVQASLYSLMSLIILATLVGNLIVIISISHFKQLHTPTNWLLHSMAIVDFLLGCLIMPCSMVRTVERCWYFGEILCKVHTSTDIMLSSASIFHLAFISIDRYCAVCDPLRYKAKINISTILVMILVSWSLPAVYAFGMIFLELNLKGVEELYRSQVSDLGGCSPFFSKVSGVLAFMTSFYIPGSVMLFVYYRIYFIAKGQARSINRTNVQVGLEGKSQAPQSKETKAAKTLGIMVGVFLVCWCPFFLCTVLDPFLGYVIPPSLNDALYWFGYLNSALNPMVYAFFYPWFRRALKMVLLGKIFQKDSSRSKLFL

α1A adrenergic receptor [9] = biological target: T8, α1A adrenergic receptor (Homo sapiens, UniProt P35348); design: method as in Simmler et al., 2013; conditions: read-out: α1A Ki ± SD; [3H]prazosin; ref Simmler et al., 2013; cited from earlier work
T8 construct: expressed in transfected cells; host or cells: Chinese hamster ovary cell line (membrane preparation)
T8 sequence (P35348 1-466): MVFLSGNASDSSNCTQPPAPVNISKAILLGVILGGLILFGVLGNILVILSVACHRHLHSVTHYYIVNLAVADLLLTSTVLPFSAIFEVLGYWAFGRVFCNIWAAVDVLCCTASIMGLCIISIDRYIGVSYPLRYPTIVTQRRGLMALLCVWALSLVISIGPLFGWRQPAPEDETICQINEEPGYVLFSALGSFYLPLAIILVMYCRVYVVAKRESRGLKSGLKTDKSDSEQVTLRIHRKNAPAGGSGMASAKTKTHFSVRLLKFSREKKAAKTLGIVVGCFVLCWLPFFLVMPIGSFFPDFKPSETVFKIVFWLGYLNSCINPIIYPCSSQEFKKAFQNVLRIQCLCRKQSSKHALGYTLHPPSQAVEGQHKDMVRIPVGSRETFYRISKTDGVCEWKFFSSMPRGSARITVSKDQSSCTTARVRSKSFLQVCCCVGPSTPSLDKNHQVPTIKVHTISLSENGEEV

dopaminergic D2 receptor [10] = biological target: T9, dopaminergic D2 receptor (Homo sapiens, UniProt P14416); design: method as in Simmler et al., 2013; conditions: read-out: D2 Ki ± SD; [3H]spiperone; ref Simmler et al., 2013; cited from earlier work
T9 construct: expressed in transfected cells; host or cells: HEK 293 (membrane preparation)
T9 sequence (P14416 whole entry): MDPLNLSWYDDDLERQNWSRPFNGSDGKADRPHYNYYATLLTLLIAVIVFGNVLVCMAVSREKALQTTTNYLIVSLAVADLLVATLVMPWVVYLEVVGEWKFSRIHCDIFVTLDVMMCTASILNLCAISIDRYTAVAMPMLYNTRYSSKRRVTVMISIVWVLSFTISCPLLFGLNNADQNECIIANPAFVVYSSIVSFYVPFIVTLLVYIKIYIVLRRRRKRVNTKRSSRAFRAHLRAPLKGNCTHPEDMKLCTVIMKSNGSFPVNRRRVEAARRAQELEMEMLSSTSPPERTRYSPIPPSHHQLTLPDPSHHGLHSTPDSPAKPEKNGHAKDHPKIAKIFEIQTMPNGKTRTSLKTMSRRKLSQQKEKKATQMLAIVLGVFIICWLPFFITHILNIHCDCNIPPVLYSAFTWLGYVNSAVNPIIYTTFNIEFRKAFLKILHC

hDAT [11] = biological target: T3, hDAT; design: expressed in transfected cells; host or cells: HEK 293 (membrane preparation); method as in Simmler et al., 2013; conditions: [3H]WIN35,428; ref Simmler et al., 2013; read-out: hDAT Ki ± SD; cited from earlier work
hDAT [12] = biological target: T3, hDAT; test: Monoamine uptake transporter inhibition, [3H]dopamine, HEK 293 cells; conditions: 10 µM
hSERT [13] = biological target: T10, hSERT (Homo sapiens, UniProt P31645); test: Monoamine uptake transporter inhibition, [3H]5-HT, HEK 293 cells; conditions: 10 µM
T10 sequence (P31645 whole entry): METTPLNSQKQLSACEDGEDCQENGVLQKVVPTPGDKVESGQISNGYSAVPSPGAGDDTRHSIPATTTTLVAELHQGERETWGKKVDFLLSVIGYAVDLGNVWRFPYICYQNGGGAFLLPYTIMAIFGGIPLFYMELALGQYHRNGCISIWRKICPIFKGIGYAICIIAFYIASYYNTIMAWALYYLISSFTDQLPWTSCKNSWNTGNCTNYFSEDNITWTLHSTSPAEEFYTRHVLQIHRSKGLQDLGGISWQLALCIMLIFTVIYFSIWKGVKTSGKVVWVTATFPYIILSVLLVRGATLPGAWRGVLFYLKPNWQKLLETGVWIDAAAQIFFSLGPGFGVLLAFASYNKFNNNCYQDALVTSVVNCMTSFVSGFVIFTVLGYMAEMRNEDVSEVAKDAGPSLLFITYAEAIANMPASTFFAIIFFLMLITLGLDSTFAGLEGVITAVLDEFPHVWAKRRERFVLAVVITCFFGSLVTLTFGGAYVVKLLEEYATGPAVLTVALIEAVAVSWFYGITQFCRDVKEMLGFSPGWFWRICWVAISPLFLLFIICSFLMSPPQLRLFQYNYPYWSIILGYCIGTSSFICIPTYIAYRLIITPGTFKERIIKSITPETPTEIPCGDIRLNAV

head-twitch response = tested on: head-twitch response; design: method as in Halberstadt et al., 2019; conditions: ref Halberstadt et al., 2019; cited from earlier work
hNET [14] = biological target: T6, hNET; test: Radioligand binding, NET (N-methyl-[3H]nisoxetine); design: expressed in transfected cells; host or cells: HEK 293 (membrane preparation)
mouse TAAR1 [15] = biological target: T7, mouse TAAR1; test: Radioligand binding, mouse TAAR1 ([3H]RO5166017)
α2A adrenergic receptor [16] = biological target: T4, α2A adrenergic receptor; test: Radioligand binding, α2A adrenergic receptor ([3H]rauwolscine)
rat TAAR1 [17] = biological target: T5, rat TAAR1; test: Radioligand binding, rat TAAR1 ([3H]RO5166017)
human 5-HT2B receptor [18] = biological target: T2, human 5-HT2B receptor; test: Activity at the 5-HT2B receptor (FLIPR calcium, HEK 293 cells); assay type: cell-based
Protocol: Activity at the 5-HT2B receptor was examined as previously described ([Luethi et al., 2018]). In summary, HEK 293 cells expressing the human 5-HT2B receptor were seeded at a density of 50,000 cells per well in 96-well poly-D-lysine-coated plates overnight at 37°C. The cells were then incubated in growth medium consisting of high glucose Dulbecco’s modified Eagle’s medium (DMEM) (Invitrogen, Zug, Switzerland), 10% fetal calf serum (non-dialyzed, heat-inactivated), 250 mg/l Geneticin and 10 ml/l PenStrep (Gibco), overnight at 37°C. After removal of the growth medium via snap inversion, calcium indicator Fluo-4-solution (100 µl) was injected into each well (Molecular Probes, Eugene, OR, USA) and incubated for 45 min at 31°C. Afterwards, the Fluo-4 solution was removed (snap inversion) and a further 100 µl of the Fluo-4 solution was added and incubated (45 min, 31°C). Thereafter, using the EMBLA cell washer, the cells were washed just before testing with HBSS and 20 mM HEPES and exposed to 100 µl of assay buffer. The well plate was positioned in the FLIPR and while online, 25 µl of the test compounds diluted in assay buffer were added. Concentration-response curves were calculated using nonlinear regression, and EC50 values were obtained. The maximal activity at the receptors was calculated relative to 5-HT activity which was defined as 100%.

dopaminergic D2 receptor [19] = biological target: T9, dopaminergic D2 receptor; test: Radioligand binding, dopaminergic D2 receptor ([3H]spiperone)
hSERT [20] = biological target: T10, hSERT; test: Radioligand binding, SERT ([3H]citalopram); design: expressed in transfected cells; host or cells: HEK 293 (membrane preparation)
α1A adrenergic receptor [21] = biological target: T8, α1A adrenergic receptor; test: Radioligand binding, α1A adrenergic receptor ([3H]prazosin)
5-HT1A receptor [22] = biological target: T1, 5-HT1A receptor; test: Radioligand binding, 5-HT1A receptor ([3H]8-OH-DPAT)
hDAT [23] = biological target: T3, hDAT; test: Radioligand binding, DAT ([3H]WIN35,428); design: expressed in transfected cells; host or cells: HEK 293 (membrane preparation)

**Q.** Which results are given for `COc1cc(CCN)c(OC)cc1Br` [2C-B, 4-bromo-2,5-dimethoxyphenethylamine]?
**A.** Ki (5-HT1A receptor [1]; read-out: h5-HT1A Receptor binding Ki ± SD, [3H]8-OH-DPAT, ref Luethi et al., 2018): 0.311 ± 0.046 µM; EC50 (human 5-HT2B receptor [2]; read-out: h5-HT2B Activation potency EC50 ± SD): 0.075 ± 0.014 µM; h5-HT2B Activation efficacy max ± SD (human 5-HT2B receptor [2]; relative to 5-HT): 52 ± 26%

**Q.** Which Psychoactivity in humans (humans) does the source give for `COc1cc(OC)c(OC)cc1CCN` [2C-O-1, 2,4,5-trimethoxyphenethylamine] here?
**A.** fairly inactive in humans; also recorded: not psychoactive in humans

**Q.** For `COc1cc(OC(C)C)c(OC)cc1CCN` [2C-O-4, 2,5-dimethoxy-4-isopropoxyphenethylamine], which Psychoactivity in humans (humans) is on record?
**A.** fairly inactive in humans; also recorded: not psychoactive in humans

**Q.** Which Psychoactivity in humans (humans) does the source give for `CCCCOc1cc(OC)c(CC(C)N)cc1OC` (stereo not shown) [MBM, 4-butoxy-2,5-dimethoxyamphetamine] here?
**A.** no psychoactive effects

**Q.** With `CNC(C)Cc1ccc2c(c1)OCO2` (stereo not shown) [MDMA] as the compound, how does the EC50 (hDAT [3]) read?
**A.** 17 µM

**Q.** And the Ki (α2A adrenergic receptor [4])?
**A.** 15 ± 0.2 µM

**Q.** And the Ki (rat TAAR1 [5])?
**A.** 0.37 ± 0.12 µM

**Q.** And the “Effect on NE uptake into the cells” value (hNET [6])?
**A.** markedly reduced

**Q.** And the Ki (hNET [7])?
**A.** 30.5 ± 8 µM

**Q.** What about the Ki (mouse TAAR1 [8]) of the same compound?
**A.** 2.4 ± 1.1 µM

**Q.** And the Ki (α1A adrenergic receptor [9])?
**A.** > 6 µM

**Q.** And the Ki (dopaminergic D2 receptor [10])?
**A.** 25.2 ± 2 µM

**Q.** What about the Ki (hDAT [11]) of the same compound?
**A.** 6.5 ± 2.5 µM

**Q.** What about the “Effect on DA uptake into the cells” value (hDAT [12]) of the same compound?
**A.** moderately reduced

**Q.** What about the “Effect on 5-HT uptake into the cells” value (hSERT [13]) of the same compound?
**A.** markedly reduced

**Q.** What does the source list for `CCOc1cc(OC)c(CC(C)N)cc1OC` (stereo not shown) [MEM, 2,5-dimethoxy-4-ethoxyamphetamine]?
**A.** Psychoactivity in humans (humans): displayed psychedelic activity; Behavioral potency in head-twitch response (head-twitch response): equipotent

**Q.** With `CCCOc1cc(OC)c(CC(C)N)cc1OC` (stereo not shown) [MPM, 2,5-dimethoxy-4-propoxyampehtamine] as the compound, how does the Psychoactivity in humans (humans) read?
**A.** no psychoactive effects

**Q.** And the “Behavioral potency in head-twitch response” value (head-twitch response)?
**A.** equipotent

**Q.** Which Ki (hNET [14]) does the source give for `COc1cc(OC)c(OC)cc1CC(C)N` (stereo not shown) [TMA-2, 2,4,5-trimethoxyamphetamine] here?
**A.** > 8.7 µM

**Q.** What about the Ki (mouse TAAR1 [15]) of the same compound?
**A.** > 4.4 µM

**Q.** What about the Ki (α2A adrenergic receptor [16]) of the same compound?
**A.** > 4.7 µM

**Q.** What about the Psychoactivity in humans (humans) of the same compound?
**A.** displayed psychedelic activity

**Q.** What about the “Potency in humans relative to 3,4,5-trimethoxyamphetamine (TMA)” value (humans; EMCDDA, 2004) of the same compound?
**A.** roughly 6 times

**Q.** And the Ki (rat TAAR1 [17])?
**A.** 3.1 ± 0.1 µM

**Q.** And the EC50 (human 5-HT2B receptor [18])?
**A.** 0.27 µM

**Q.** And the Emax (human 5-HT2B receptor [18]; HEK293, relative to 5-HT = 100%, read-out: h5-HT2B Activation efficacy max ± SD)?
**A.** 78 ± 5%

**Q.** What about the Ki (dopaminergic D2 receptor [19]) of the same compound?
**A.** > 13 µM

**Q.** And the Ki (hSERT [20])?
**A.** > 7.5 µM

**Q.** And the Ki (α1A adrenergic receptor [21])?
**A.** > 6.5 µM

**Q.** What about the Ki (5-HT1A receptor [22]) of the same compound?
**A.** > 17 µM

**Q.** And the “Behavioral potency in head-twitch response” value (head-twitch response)?
**A.** equipotent

**Q.** And the Ki (hDAT [23])?
**A.** > 8.5 µM

**Q.** Which Ki (5-HT1A receptor [1]; read-out: 5-HT1A receptor Ki, ref Simmler et al., 2013) does the source give for `CC(N)Cc1ccccc1` (stereo not shown) [amphetamine] here?
**A.** 6.7 µM

**Q.** For `COc1cc(CCN)cc(OC)c1OC` [mescaline, 3,4,5-trimethoxyphenethylamine], which “Psychoactive oral dose in humans” value (humans; oral, humans) is on record?
**A.** > 200 mg
